Data set [1] addresses T1, GluN1/GluN3A receptors in CA1 pyramidal cells (Mus musculus, UniProt A2AIR5+P35438).
T1 construct: from tissue; host or cells: acute hippocampal slices (CA1 pyramidal cells) of P8-P12 wild-type mice
The data set is described as follows: Glycine puffs onto voltage-clamped CA1 pyramidal cells, hippocampal slices of wild-type mice. It counts as cell-based. As for the experimental part: (§1) Ex-vivo electrophysiological experiments were performed on coronal slices from the brains of juvenile wild-type (WT) and GluN3A-KO mice originating from the same litters (8–12 days old). Slices were prepared as described previously. Briefly, mice were anesthetized with isofluorane before decapitation. After isolation, the portion of the brain containing the hippocampus was placed in bicarbonate-buffered saline (BBS) at 2–5 °C for a few minutes. Slices (300 μm) were then cut using a 7000 smz-2 vibratome (Campden). The slicing procedure was performed in an ice-cold solution containing (in mM): 130 K^+- gluconate, 15 KCl, 0.05 EGTA, 20 Hepes, 25 glucose, 1 CaCl2, and 6 MgCl2 supplemented with DL-APV (50 µM).
(§2) CA1 neurons were recorded from both the ventral and the dorsal hippocampus. Cells were visualized with a combination of Dodt contrast, and an on-line video contrast enhancement. CA1 cells could be easily identified in the red light with which slices were visualized using a CoolSnap HQ2 CCD camera (Photometrics) run by MetaMorph (Universal Imaging). Whole-cell recordings were performed with an EPC-10 double amplifier (Heka Elektronik) run by PatchMaster (Heka). […] Series resistance was partially compensated (max 65%), whereas liquid junction potentials were not corrected. Recordings were performed at a holding potential of −60 mV.

In data set [2] the target is T2, GluN1/GluN3A receptors (Rattus norvegicus, UniProt P35439+Q9R1M7). As to the kind of experiment: Whole-cell patch-clamp of glycine currents in HEK293 cells expressing wild-type GluN1/GluN3A. To be noted: for Effect of reducing treatment on glycine-evoked responses: 20 min, glycine 100 µM; for Peak and steady-state current potentiation compared with CGP-78608: MDL-29951 200 nM, 7-CKA 10 µM, L-689560 1 µM pre-incubated. Background: Patch clamp records ionic current or voltage across a cell membrane.
T2 sequence (Q9R1M7 24-1135, other chains not shown): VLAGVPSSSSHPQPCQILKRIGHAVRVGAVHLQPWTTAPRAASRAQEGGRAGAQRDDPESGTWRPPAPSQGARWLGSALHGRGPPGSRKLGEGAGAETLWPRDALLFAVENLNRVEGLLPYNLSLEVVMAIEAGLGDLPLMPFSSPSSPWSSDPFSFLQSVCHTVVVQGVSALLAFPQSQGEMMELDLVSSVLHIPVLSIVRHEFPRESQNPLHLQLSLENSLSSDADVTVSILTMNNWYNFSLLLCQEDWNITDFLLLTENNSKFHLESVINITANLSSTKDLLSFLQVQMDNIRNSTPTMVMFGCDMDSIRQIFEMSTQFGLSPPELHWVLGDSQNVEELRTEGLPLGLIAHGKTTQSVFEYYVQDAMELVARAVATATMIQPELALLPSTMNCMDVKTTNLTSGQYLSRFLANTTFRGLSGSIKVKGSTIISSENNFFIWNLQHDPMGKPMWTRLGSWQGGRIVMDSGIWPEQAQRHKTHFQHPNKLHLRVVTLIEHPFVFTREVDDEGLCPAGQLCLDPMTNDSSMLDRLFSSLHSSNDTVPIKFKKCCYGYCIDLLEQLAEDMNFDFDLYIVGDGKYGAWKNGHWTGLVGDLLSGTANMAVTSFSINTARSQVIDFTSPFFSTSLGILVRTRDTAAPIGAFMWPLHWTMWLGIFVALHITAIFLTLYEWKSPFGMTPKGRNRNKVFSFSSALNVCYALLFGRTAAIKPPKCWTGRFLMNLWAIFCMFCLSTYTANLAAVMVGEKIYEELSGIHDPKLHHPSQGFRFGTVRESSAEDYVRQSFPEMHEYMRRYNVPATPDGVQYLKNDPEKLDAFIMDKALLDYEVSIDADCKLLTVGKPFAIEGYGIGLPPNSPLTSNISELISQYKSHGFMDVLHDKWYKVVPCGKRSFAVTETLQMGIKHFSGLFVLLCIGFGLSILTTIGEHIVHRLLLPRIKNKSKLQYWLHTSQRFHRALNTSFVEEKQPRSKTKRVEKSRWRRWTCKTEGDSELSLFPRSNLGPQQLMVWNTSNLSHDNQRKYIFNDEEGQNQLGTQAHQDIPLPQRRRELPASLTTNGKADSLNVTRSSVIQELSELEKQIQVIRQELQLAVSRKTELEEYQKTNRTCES
Description: HEK293 cells were used for heterologous expression of recombinant GluN1/GluN3 receptors studied using whole-cell patch-clamp. […] Recordings were performed 24–48 h following cell transfection. The extracellular solution contained (in mM): 140 NaCl, 2.8 KCl, 1 CaCl2, 10 HEPES and 20 Sucrose (290–300 mOsm), pH adjusted to 7.3 using NaOH. […] Drugs and agonists were applied using a multi-barrel solution exchanger (RSC 200; Bio-logic). Recordings were performed at −60 mV and at room temperature. […] EC50, a and nH were set as free parameters.

Data set [3] deals with GluN1-C744S-C798S/GluN3A-C859S-C913S receptors (Rattus norvegicus, UniProt P35439+Q9R1M7, C744S/C798S/C859S/C913S). To be noted: CNQX 50 µM. As to the method: (§3) Cells were transfected using polyethylenimine with GluN1, GluN3A and GFP plasmids at a 1:3:1 ratio (0.3, 0.9 and 0.3 ng/µl respectively). Recordings were performed 24–48 h following cell transfection. […] EC50, a and nH were set as free parameters.
Chain of GluN1-C744S-C798S/GluN3A-C859S-C913S receptors (Q9R1M7 24-1135 C859S/C913S, other chains not shown): as the sequence (Q9R1M7 24-1135, other chains not shown) above, with C836S, C890S counted along it

In the next data set the test system is GluN1 ABD. The arrangement: method as in PMID 16641235. To be noted: cited from earlier work; for Ki: isolated domains.
Another data set deals with GluN1 (native receptors). To be noted: read-out: Ki for GluN1; cited from earlier work.
Data set [4] deals with CA1 pyramidal cells of GluN3A-KO mice. The data set is described as follows: Glycine puffs onto voltage-clamped CA1 pyramidal cells, hippocampal slices of GluN3A-KO mice. The format is cell-based, mouse. To be noted: glycine 10 mM puff. As to the method:
as §1, §2

The target in another data set is GluN3A ABD. To be noted: read-out: Glycine affinity; isolated GluN3A ABD; cited from earlier work.
The next data set deals with HEK cells. As to the kind of experiment: Tolerability of reducing agent when patching HEK cells.
In data set [5] the target is T3, GluN1-F484A/GluN3A receptors (Rattus norvegicus, UniProt P35439+Q9R1M7, F484A).
T3 construct: while we record from intact (i.e. full length) membrane-imbedded receptors; expressed in transfected cells; host or cells: HEK293 cells
T3 sequence (Q9R1M7 24-1135, other chains not shown): as the sequence (Q9R1M7 24-1135, other chains not shown) above
The data set is described as follows: Whole-cell patch-clamp in HEK293 cells, GluN1-F484A mutant. The format is cell-based. To be noted: CGP-78608 500 nM. As for the experimental part: as §3

Data set [6] concerns the target T2, GluN1/GluN3A receptors. As to the kind of experiment: Two-electrode voltage-clamp in Xenopus oocytes expressing wild-type GluN1/GluN3A. It counts as cell-based. The arrangement: while we record from intact (i.e. full length) membrane-imbedded receptors; expressed in transfected cells; host or cells: HEK293 cells. To be noted: TCEP 5 mM, 20 min; glycine 100 µM. As for the experimental part:
Oocytes from Xenopus lævis (Xenopus Express, Rennes, France) were used for heterologous expression of recombinant GluN1/GluN3A receptors studied using two-electrode voltage-clamp (TEVC). TEVC recordings were performed 3–4 days following injection. […] Each oocyte was co-injected with a mixture of GluN1 and GluN3A cDNA at a concentration of 50 ng/µl and at a 1:1 ratio. The standard external solution contained (in mM): 100 NaCl, 2.5 KCl, 0.3 BaCl2, 5 HEPES, 0.01 DTPA (diethylenetriamine-pentaacetic acid), pH 7.3. […]
EC50, a and nH were set as free parameters.
In general terms: Two-electrode voltage clamp is typically applied to oocytes expressing channels or transporters.

Molecules are shown by their SMILES. Entries after “also recorded” stand apart in the source; their conditions may differ.

As a reminder, the Ki is a dissociation constant, usually derived from enzyme kinetics or from competition with a known ligand.

T1 sequence (A2AIR5 27-1135, other chains not shown): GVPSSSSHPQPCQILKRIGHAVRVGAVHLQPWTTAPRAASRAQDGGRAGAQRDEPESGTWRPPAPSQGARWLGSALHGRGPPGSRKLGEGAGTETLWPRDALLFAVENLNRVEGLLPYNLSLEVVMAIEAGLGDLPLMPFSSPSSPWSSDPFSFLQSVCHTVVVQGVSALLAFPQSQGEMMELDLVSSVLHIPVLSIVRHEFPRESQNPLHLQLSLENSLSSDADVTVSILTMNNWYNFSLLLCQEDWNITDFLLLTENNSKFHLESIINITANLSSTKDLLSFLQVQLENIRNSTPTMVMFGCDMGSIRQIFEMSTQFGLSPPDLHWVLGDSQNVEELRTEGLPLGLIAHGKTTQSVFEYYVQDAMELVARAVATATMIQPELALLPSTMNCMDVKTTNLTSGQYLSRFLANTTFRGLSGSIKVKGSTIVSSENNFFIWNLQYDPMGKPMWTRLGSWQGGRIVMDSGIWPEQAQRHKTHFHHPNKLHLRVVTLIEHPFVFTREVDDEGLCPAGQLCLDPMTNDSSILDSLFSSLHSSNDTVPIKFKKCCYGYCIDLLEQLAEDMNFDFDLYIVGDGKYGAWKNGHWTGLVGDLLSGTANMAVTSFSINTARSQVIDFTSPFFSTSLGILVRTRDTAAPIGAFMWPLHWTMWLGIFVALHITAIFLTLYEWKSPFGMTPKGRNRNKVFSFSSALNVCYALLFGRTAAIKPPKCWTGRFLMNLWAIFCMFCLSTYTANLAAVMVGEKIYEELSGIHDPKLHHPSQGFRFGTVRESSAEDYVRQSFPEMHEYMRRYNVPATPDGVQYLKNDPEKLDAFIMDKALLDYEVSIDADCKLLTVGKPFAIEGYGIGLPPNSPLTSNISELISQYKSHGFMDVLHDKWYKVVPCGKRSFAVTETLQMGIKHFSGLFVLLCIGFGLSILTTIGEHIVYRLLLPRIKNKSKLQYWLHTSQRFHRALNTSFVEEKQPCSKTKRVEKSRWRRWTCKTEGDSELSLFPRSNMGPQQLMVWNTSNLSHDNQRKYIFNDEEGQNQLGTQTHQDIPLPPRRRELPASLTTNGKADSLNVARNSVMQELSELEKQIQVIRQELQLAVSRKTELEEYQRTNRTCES
Excerpt for HEK cells: In the current work, TCEP was used on HEK cells and DTE on Xenopus oocytes.
When patching HEK cells, however, we observed that
Accordingly, we switched to TCEP,
DTE and TCEP, while both powerful to break disulfide
bonds, differ in their membrane permeability (DTE can cross membranes but not TCEP).

On to `O=C(O)c1cc(=O)c2c(Cl)cc(Cl)cc2[nH]1` [DCKA, 5-7-Dichlorokynurenic acid], for which, in [1] (bath DCKA 500 µM in presence of CGP-78608, WT), the Glycine-induced current amplitude is recorded as 10.2 ± 2.7 pA.

Consider `N[C@@H](CCC(=O)N[C@@H](CS)C(=O)NCC(=O)O)C(=O)O` [GSH, reduced glutathione], for which, on GluN1/GluN3A receptors [2] (GSH 50 mM), the “Effect of reducing treatment on glycine-evoked responses” value is on record as “completely modified the current phenotype”.

Turning to `N#Cc1cc2[nH]c(=O)c(=O)[nH]c2cc1[N+](=O)[O-]` [CNQX, 6-Cyano-7-nitroquinoxaline-2,3-dione], the “Outward displacement of holding current” value at GluN1/GluN3A receptors [2] (CNQX 50 µM, no added glycine) was 0.6 ± 0.06 pA. Moreover, the “Effect on tail currents following glycine removal” value in [3] (glycine 100 µM) is recorded as “inhibited the large tail currents”. The “Displacement of holding current” value in data set [3] (no added glycine) is 22.9 ± 8.3 pA.

On to `O=C(Nc1ccccc1)N[C@H]1C[C@H](C(=O)O)Nc2cc(Cl)cc(Cl)c21` (relative stereo) [L-689560, trans-2-Carboxy-5,7-dichloro-4-phenylaminocarbonylamino-1,2,3,4-tetrahydroquinoline], for which the “Peak and steady-state current potentiation compared with CGP-78608” value at GluN1/GluN3A receptors [2] (glycine 1 mM) is reported as “orders of magnitude lower”. The “Selectivity for GluN1 vs GluN3 ABD” value with GluN1 ABD (binding studies on isolated agonist-binding domains) is given as “even better than CGP-78608”. Further, at GluN1 ABD, the Ki is 29.3 nM.

For `O=C(O)CCc1c(C(=O)O)[nH]c2cc(Cl)cc(Cl)c12` [MDL-29951, 2-carboxy-4,6-dichloro-1H-indole-3-propanoic acid], the “Potentiating factors at higher concentration” value at GluN1/GluN3A receptors [2] (MDL-29951 2 µM, glycine 1 mM) is given as “smaller than those observed at 200 nM”. Besides, the “Peak and steady-state current potentiation compared with CGP-78608” value on GluN1/GluN3A receptors [2] (glycine 1 mM) is reported as “orders of magnitude lower”. The inhibitory constant (Ki) on GluN1 (native receptors) is 140 nM.

Turning to `NCC(=O)O` [glycine, Glycine], the “Glycine-induced inward current amplitude” value in data set [4] (control conditions) came to 6.0 ± 0.8 pA; in data set [1] (glycine 10 mM puff, control conditions, WT P8-P12), 9.3 ± 1.4 pA. Besides, at GluN3A ABD, the Kd is 40.4 nM.

With `O[C@H](CS)[C@@H](O)CS` [DTE, dithioerythritol], the “Tolerability by HEK cells” value in the data set on HEK cells is reported as “could induce cell toxicity”.

Take `O=C(O)c1cc(O)c2ccc(Cl)cc2n1` [7-CKA, 7-Chlorokynureic acid]: the “Peak and steady-state current potentiation compared with CGP-78608” value at GluN1/GluN3A receptors [2] (glycine 1 mM) is “orders of magnitude lower”. Also, on GluN1 ABD, the Ki is 2600 nM.

Take `N[C@H](CO)C(=O)O` [D-serine]: the “Agonist efficacy relative to glycine” value on GluN1/GluN3A receptors [2] (D-serine up to 500 µM vs glycine 100 µM, CGP-78608 500 nM) is “lower efficacy than glycine”.

For the molecule `C[C@@H](NCc1cc(Br)cc2[nH]c(=O)c(=O)[nH]c12)P(=O)(O)O.Cl` [CGP-78608, [(1 S)-1-[[(7-Bromo-1,2,3,4-tetrahydro-2,3-dioxo-5-quinoxalinyl)methyl]amino]ethyl]phosphonic acid hydrochloride], the Ki at GluN1 ABD is 6.4 nM. In addition, in data set [4] (bath CGP-78608 1 µM), the “Glycine-induced inward current amplitude” value was 5.0 ± 0.6 pA. In addition, the “Potentiating effect on GluN1-F484A mutant” value in [5] was “insensitive; also recorded: almost completely abolished”.

With `O=C(O)CCP(CCC(=O)O)CCC(=O)O` [TCEP, Tris(2-carboxyethyl)phosphine], the “Effect of reducing treatment on glycine-evoked responses” value at GluN1/GluN3A receptors [2] (TCEP 5 mM) was “drastic effects”. On GluN1/GluN3A receptors [6], the “Effect of reducing treatment on glycine-evoked currents” value is “currents radically changed”.

The values are drawn from paper PMC6233196 (Nature Communications, 2018).
